Values of other authors in patent publication US20210022978A1, “BUMETANIDE DERIVATIVES FOR THE THERAPY OF HYPERHIDROSIS” (ZILENTIN AG, priority 2018, published 2021).

Key:
conditioned anxiety = conditions: rats, compared with the vehicle alone
NKCC in sweat glands = target: T1, NKCC in sweat glands (Homo sapiens, UniProt P55011)
T1 construct: host or cells: sweat glands (in vivo)
T1 sequence (P55011 1-1212): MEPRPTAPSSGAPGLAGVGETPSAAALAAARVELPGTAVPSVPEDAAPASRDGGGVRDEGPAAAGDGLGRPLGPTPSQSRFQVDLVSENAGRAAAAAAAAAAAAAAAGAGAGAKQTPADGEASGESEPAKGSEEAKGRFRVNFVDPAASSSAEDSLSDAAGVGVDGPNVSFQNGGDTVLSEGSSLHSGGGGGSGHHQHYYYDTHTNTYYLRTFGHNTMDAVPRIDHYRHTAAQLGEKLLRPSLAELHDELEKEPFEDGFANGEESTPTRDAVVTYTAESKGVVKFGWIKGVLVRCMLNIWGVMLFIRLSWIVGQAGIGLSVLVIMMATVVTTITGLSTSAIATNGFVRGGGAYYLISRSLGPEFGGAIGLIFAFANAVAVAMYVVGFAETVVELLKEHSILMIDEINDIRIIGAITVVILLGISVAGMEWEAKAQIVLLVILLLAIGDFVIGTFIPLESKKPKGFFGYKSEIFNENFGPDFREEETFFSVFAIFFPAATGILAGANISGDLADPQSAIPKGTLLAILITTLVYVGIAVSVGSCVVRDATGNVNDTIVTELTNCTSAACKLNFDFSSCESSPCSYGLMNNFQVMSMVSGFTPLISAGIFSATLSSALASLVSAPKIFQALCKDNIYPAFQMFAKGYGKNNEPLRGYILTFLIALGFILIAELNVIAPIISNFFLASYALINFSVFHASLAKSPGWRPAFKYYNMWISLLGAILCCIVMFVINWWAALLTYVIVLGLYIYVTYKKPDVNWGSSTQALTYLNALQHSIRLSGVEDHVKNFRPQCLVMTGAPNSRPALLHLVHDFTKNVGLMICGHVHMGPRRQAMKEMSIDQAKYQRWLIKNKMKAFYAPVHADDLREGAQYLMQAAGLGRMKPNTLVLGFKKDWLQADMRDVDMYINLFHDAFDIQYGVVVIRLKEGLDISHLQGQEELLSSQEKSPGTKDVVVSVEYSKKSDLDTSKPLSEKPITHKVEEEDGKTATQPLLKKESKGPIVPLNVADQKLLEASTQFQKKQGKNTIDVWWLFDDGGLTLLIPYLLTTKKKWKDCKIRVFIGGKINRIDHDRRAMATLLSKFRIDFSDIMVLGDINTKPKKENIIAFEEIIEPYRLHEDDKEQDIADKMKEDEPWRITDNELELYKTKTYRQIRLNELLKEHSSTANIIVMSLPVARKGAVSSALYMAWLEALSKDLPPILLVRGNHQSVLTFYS

| effectiveness in treating hyperhidrosis (NKCC in sweat glands) | Structure (SMILES) | percentage of test period freezing (conditioned anxiety) | inhibition of rAceMIF tautomerase activity (rAceMIF) |
| --- | --- | --- | --- |
| partly effective | CCCCNc1cc(C(=O)O)cc(S(N)(=O)=O)c1Oc1ccccc1 [bumetanide, 3-(butylamino)-4-phenoxy-5-sulfamoylbenzoic acid] | significantly smaller percentage of test period freezing | – |
| – | NS(=O)(=O)c1cc(C(=O)O)c(NCc2ccco2)cc1Cl [furosemide] | – | submicromolar |
